Experiments:
HMGal [1] = test: HMGal activity (in vitro β-galactosidase specific activity) in CHO-HMGal cells; assay type: cell-based; conditions: for reduction in HMGal activity at concentrations below the levels toxic to the cells: five isoprenoid compounds tested
Procedure: (§1) Cell Culture--All cells were grown as monolayers at 37° C. in an atmosphere of 5% CO2. CHO-HMGal cells were grown in minimal essential medium (MEM) supplemented with 0.25 mg/ml active geneticin and either 5% fetal calf serum (FCS) or 5% lipid-poor fetal calf serum (LPS).
Stock Solutions--Stock solutions of farnesyl acetate, ethyl farnesyl ether, and the mixture of 25-hydroxycholesterol with cholesterol were all made in 100% ethanol at 100 times the final concentration. In all experiments in which these compounds were used, there is a final concentration of 1% ethanol in the medium. For control, cells grown with "no additives" or "mevalonate" 100% ethanol was added to the medium to bring the final concentration of ethanol to 1%. The mevalonate stock solution was prepared at a concentration of 2M in 20 mM potassium phosphate buffer (pH 4.5).
(§2) β-galactosidase Specific Activity--In vitro β-galactosidase activity was measured using the substrate, o-nitrophenyl-β-D-galactopyranoside. Specific activities were calculated using protein concentration values.
Farnesyl acetate and ethyl farnesyl ether stimulate a reduction in HMGal activity--In an attempt to identify tile non-sterol metabolite(s) that triggers the down regulation of HMG-CoA reductase, five commercially available isoprenoid compounds were tested for their effects on HMGal activity in CHO-HMGal cells. Each of tile compounds tested closely resembled one of tile naturally occurring isoprenoid pyrophosphates, except that the pyrophosphate group had been replaced by either a hydroxyl or an […] group. The compounds tested included: 3-methyl-2-buten-1-ol, the alcohol of the five carbon isoprenoid-dimethylallyl pyrophosphate (a naturally occurring isomer of isopentenyl pyrophosphate); geraniol and geranyl acetate, the alcohol and the […] of the ten carbon isoprenoid-geranyl pyrophosphate; and farnesol and farnesyl acetate, the alcohol and the […] of the fifteen carbon isoprenoid-farnesyl pyrophosphate.
(§3) To confirm that the reduction in HMGal activity was the result of a regulatory function specifically targeting the membrane domain of HMGal, the effects of farnesyl acetate on β-galactosidase activity were measured in vitro for both CHO-HMGal cells and CHO-Gal cells. The CHO-Gal cells had been stably transfected with a construct identical to the HMGal construct (using the same vector, promoter, and 5' and 3' flanking regions) except that the construct in the CHO-Gal cells codes for a soluble β-galactosidase protein instead of the HMGal fusion protein with the membrane domain of HMG-CoA reductase. In this experiment, the CHO-Gal cells served to control for any artifacts farnesyl acetate might cause in the β-galactosidase assay or any nonspecific effects farnesyl acetate might have on the rates of protein synthesis or degradation.

CHO-HMGal cells = test: Cell growth of CHO-HMGal cells in farnesyl compounds; assay type: cell-based; conditions: 20 μg/ml
Procedure: as §1
Cell growth in farnesyl acetate and ethyl farnesyl ether CHO-HMGal cells were grown in a range of farnesyl acetate and ethyl farnesyl ether concentrations, in order to determine the optimal concentration of the farnesyl compounds to use in subsequent experiments.

HMGal [2] = test: HMGal degradation rate (pulse-chase); assay type: cell-based; conditions: 10 μg/ml during chase; untreated 6.4 hours
Procedure: (§4) Measurement of HMGal and HMG-CoA Reductase Degradation Rates Cells grown in 60×15 mm dishes were washed once with ice-cold PBS and starved for 1 hour in 1 ml of methionine-free MEM supplemented with 5% LPS, 250 μg/ml of active geneticin, 10 μM compactin, and 0.1 mM mevalonate. These cells were radio-labeled for 2 hours in 300 μl of the methionine-free starvation medium containing 100 μCi of Tran^35 S-label (>1,000 Ci/mmol). Cells were incubated in an MEM-based chase medium containing 2 mM methionine, 5% LPS, 250 μg/ml of active geneticin, 10 μM compactin, and 0.1 mM mevalonate. During the chase period, some plates also had either 20 mM mevalonate, 10 μg/ml farnesyl acetate or 10 μg/ml ethyl farnesyl ether added to them as indicated in the figure legend. Following the chase, cells were washed, lysed and the HMGal and HMG-CoA reductase proteins were immunoprecipitated, subjected to SDS-PAGE and quantified.
(§5) In order to test whether the farnesyl compounds impact degradation, the rates of degradation for HMGal, HMG-CoA reductase, and total cellular protein were measured in the presence and absence of 10 μg/ml farnesyl acetate and ethyl farnesyl ether.

β-galactosidase = β-galactosidase activity in CHO-Gal control cells; assay type: cell-based
Procedure: as §2, §3

[3] = test system: cholesterol biosynthetic pathway; test: TLC distribution of [3H]acetate-derived non-saponifiable lipids (site of metabolic block); assay type: cell-based; parameters: radioactivity in the cell-derived fraction co-migrating with lanosterol / radioactivity in the cell-derived fraction co-migrating with squalene / radioactivity in the cell-derived fraction co-migrating with cholesterol / remaining radioactivity in the cell-derived fraction scattered throughout the rest of the TLC lane: concentration or dose not given beside the values
Procedure: Lipid Saponification and Extraction Procedure Saponification and extraction of lipids from cell and media samples was performed as previously described in Bradfute, et al. (1992) J.B.C. 267:18308-18314.
(§6) Thin Layer Chromatography--TLC was performed using Analtech 250 μm silica gel G plates with a hexanes/diethyl ether (1:1) solvent system. Lipid standards were visualized by iodine staining. Bands were scraped from the plate and their radioactivity was measured.
(§7) Quantification of Radioactivity--Samples were suspended in 4 ml of scintillation fluid (Cytoscint from ICN). The radioactivity of the samples was measured using a Beckman LS-7500 scintillation counter.
To determine tile site of tile metabolic block caused by farnesyl acetate and ethyl farnesyl ether, the non-saponifiable lipids from cells grown in the presence of the farnesyl compounds were examined for the accumulation of intermediates in the cholesterol biosynthetic pathway. The cells were only labeled for 1 hour and only treated with the farnesyl compounds during the labeling period; so that any intermediates which accumulated would be as a result of the inhibitory effects of the farnesol compounds and not subsequent regulatory effects on HMG-CoA reductase. CHO-HMGal cells were incubated with [^3 H]acetate and either farnesyl acetate, ethyl farnesyl ether, or no additive. The non-saponifiable lipids were isolated from both the cell, and the medium and separated by TLC.

total cellular protein = test: Total cellular protein degradation; assay type: cell-based; conditions: 10 μg/ml
Procedure: as §4, §5

cholesterol biosynthesis = test: [3H]acetate incorporation into cholesterol in CHO-HMGal cells; assay type: cell-based
Procedure: as §6, §7
Subsequently, the cells were labeled for 1,2, and 4 hours with [^3 H]acetate and harvested. The non-saponifiable lipid fraction from each cell type was extracted and separated by TLC. The radioactivity that co-migrated with cholesterol was measured and normalized for the amount of cellular protein.
Farnesyl acetate and ethyl farnesyl ether were only present during the labeling period so that any reduction in incorporation into cholesterol would be the result of inhibition and not a down regulation in HMG-CoA reductase.

HMG-CoA reductase [4] = test: HMG-CoA reductase degradation rate (pulse-chase); assay type: cell-based; conditions: 10 μg/ml during chase; untreated 9.3 hours
Procedure: as §4, §5

HMGal [5] = test: HMGal synthesis rate ([35S]methionine incorporation); assay type: cell-based; conditions: 20 mM
Procedure: (§8) Measurement of HMGal and HMG-CoA Reductase Synthesis Rates Cells plated into 60×15 mm dishes were grown in 5% LPS MEM with 0.25 mg/ml active geneticin for 24 hours. These cells were washed with PBS and grown for 24 hours in 5% LPS MEM supplemented with 0.25 mg/ml active geneticin, 10 μM compactin and 0.1 mM mevalonate. After 24 hours, the medium was removed, the cells were washed with PBS and the medium was replaced with methionine-free MEM supplemented with 5% LPS, 250 μg/ml of active geneticin, 10 μM compactin, and 0.1 mM mevalonate. In addition, 20 mM mevalonate or 10 μg/ml farnesyl acetate was included in those plates previously treated with these compounds. […] Cells were washed, lysed and the HMGal and HMG-CoA reductase proteins were immunoprecipitated, subjected to SDS-PAGE and quantified. […]
(§9) Farnesyl compounds reduce translation and stimulate degradation of HMG-CoA reductase and HMGal A reduction in HMGal specific activity triggered by the farnesyl compounds could have been the result of a decrease in HMGal synthesis, an increase in HMGal degradation, or a combination of changes in both the synthesis and degradation rates. In order to test whether the farnesyl compounds impact synthesis, the rates of HMGal, HMG-CoA reductase, and total cellular protein synthesis were measured by [^35 S]methionine incorporation in the presence and absence of 10 μg/ml farnesyl acetate.

HMG-CoA reductase [6] = test: HMG-CoA reductase synthesis rate ([35S]methionine incorporation); assay type: cell-based; conditions: 20 mM
Procedure: as §8, §9

squalene synthase = test: Squalene synthase assay (cell lysate); assay type: biochemical; conditions: 1 nM to 50 μM
Procedure: Squalene Synthase Assay--The cell lysate was prepared immediately prior to running the assay. Cells were washed three times with PBS, once with a 0.1M potassium phosphate buffer (pH 7.4) containing 5 mM MgCl2 and 5 mM CHAPS, and once with a 0.01M potassium phosphate buffer (pH 7.4) containing 0.5 mM MgCl2 and 0.5 mM CHAPS. Cells were scraped with a rubber policeman in approximately 0.5 ml of the final wash buffer and dounce homogenized with 20 strokes, while on ice. An aliquot of cell lysate was examined with a light microscope to ensure that essentially all cells in the sample were lysed. An additional aliquot of cell lysate was saved for protein determination. […] The squalene was isolated by TLC and the radioactivity of the squalene bands was measured as previously described. […]
Since both farnesyl compounds have a structural similarity to farnesyl pyrophosphate, the substrate for squalene synthase, and some of the farnesyl compounds that have been tested function as a competitive inhibitor of squalene synthase, the effects of farnesyl acetate on in vitro squalene synthase activity was measured. As a positive control, squalene synthase activity was also measured in tile presence of zaragozic acid A, a potent competitive inhibitor of the enzyme. […]

[7] = 1 hour labeling with [3H]acetate, compound only during labeling

CC(C)=CCO [3-methyl-2-buten-1-ol, reference compound]
reduction in HMGal activity at concentrations below the levels toxic to the cells (HMGal [1]): only farnesyl acetate stimulated a reduction in HMGal activity

CCOCC=C(C)CCC=C(C)CCC=C(C)C [ethyl farnesyl ether]
reduction in cell growth (CHO-HMGal cells): approximately 60%
half-life of HMGal (HMGal [2]): 3.0 h
reduction of the half-life of HMGal (HMGal [2]): 50%
change of β-galactosidase activity of CHO-Gal cells (β-galactosidase; 10 μg/ml): insignificant
change of β-galactosidase activity of CHO-Gal cells (β-galactosidase; 20 μg/ml): essentially unchanged
radioactivity in the cell-derived fraction co-migrating with cholesterol [3, 7]: 1%
radioactivity in the cell-derived fraction co-migrating with lanosterol [3, 7]: 48%
radioactivity in the cell-derived fraction co-migrating with squalene [3, 7]: 45%
remaining radioactivity in the cell-derived fraction scattered throughout the rest of the TLC lane [3, 7]: 6%
total non-saponifiable radioactivity found in the medium ([3]; untreated 6%): 14%
total non-saponifiable radioactivity found in the cells ([3]; untreated 94%): 86%
increase in media-derived material co-migrating with farnesol ([3]; versus untreated sample): 2 fold
effect on the degradation of total cellular protein (total cellular protein): Neither farnesyl compound had a significant effect
reduction in [3H]acetate incorporation into cholesterol (cholesterol biosynthesis; 24 hours pretreatment, then labeled 1, 2 and 4 hours, CHO-HMGal cells): 95%
reduction in [3H]acetate incorporation into cholesterol (cholesterol biosynthesis; compound present only during the labeling period, no pretreatment): 98%
half-life of HMG-CoA reductase (HMG-CoA reductase [4]): 2.9 h
reduction of the half-life of HMG-CoA reductase (HMG-CoA reductase [4]): 70%
reduction of HMGal activity (HMGal [1]; 10 μg/ml, 24 hour treatment): 40%
reduction of HMGal activity (HMGal [1]; 20 μg/ml): 50%

CC(C)=CCCC(C)=CCCC(C)=CCO [farnesol, reference compound]
reduction in HMGal activity at concentrations below the levels toxic to the cells (HMGal [1]): only farnesyl acetate stimulated a reduction in HMGal activity

CC(C)=CCC/C(C)=C/CO [geraniol, reference compound]
reduction in HMGal activity at concentrations below the levels toxic to the cells (HMGal [1]): only farnesyl acetate stimulated a reduction in HMGal activity

CC(=O)OC/C=C(\C)CCC=C(C)C [geranyl acetate, reference compound]
reduction in HMGal activity at concentrations below the levels toxic to the cells (HMGal [1]): only farnesyl acetate stimulated a reduction in HMGal activity

CC(O)(CCO)CC(=O)O (centres unmarked) [mevalonate, reference compound]
reduction in the rate of HMGal synthesis (HMGal [5]): 70%
reduction in HMG-CoA reductase synthesis (HMG-CoA reductase [6]): 70%

C=C(CC[C@]12O[C@H](C(=O)O)[C@@](O)(C(=O)O)[C@](C(=O)O)(O1)[C@H](OC(=O)/C=C/[C@@H](C)C[C@@H](C)CC)[C@H]2O)[C@@H](OC(C)=O)[C@H](C)Cc1ccccc1 [zaragozic acid A, reference compound]
inhibition of in vitro squalene synthase activity (squalene synthase): more than 90%

— US5475029A, “Farnesyl compounds as cholesterol lowering agents” (The Board of Trustees of the Leland Stanford Junior …, priority 1993, dated 1995)
